Assay results from patent US11786492B2, “Therapeutic agent for phosphodiesterase inhibition and its related disorders” (Novalead Pharma Inc, priority 2017, dated 2023).

Assays:
HaCaT cells = experiment: Keratinocyte (HaCaT) proliferation, MTT assay; type: cell-based, human
Method: An experiment to check keratinocyte proliferation inhibitory activity of selected compounds of Formula-I was performed to establish its application in skin disorders related to keratinocyte hyper-proliferation. HaCaT cells, a human immortalized cell line derived from keratinocytes, representing hyper-proliferating keratinocytes was investigated for anti-proliferative potential of the selected compounds by MTT assay.

Human IL-22 = experiment: IL-22 release from stimulated PBMCs, ELISA; type: cell-based; settings: PMA+Ionomycin, 18 hrs
Method: (§1) Fresh human blood from healthy volunteer was collected in anticoagulant (5 mM) ethylene diamine tetra acetic acid (EDTA) containing tubes. The growth medium used was RPMI-1640 medium (with 3% FBS) and incubated at 37° C. for 60 mins in a 5% CO2 incubator with vehicle used as 1% DMSO. The cell viability was checked at various time points using Alamar blue and fluorescence readings were taken at excitation of 544 nm and emission of 590 nm.
(§2) PBMCs were stimulated with different stimulators as follows: • a. Cells were exposed to stimulator LPS at 100 ng/mL for 18 hrs to stimulate TNF-α, IL-6, IFN-γ, IL10, IL-1β • b. Cells were exposed to stimulator IFN-γ+LPS at 100 ng/mL+1 μg/mL for 18 hrs to stimulate IL-12 • c. Cells were exposed to stimulator PMA+Ionomycin at 50 ng/mL+1 μg/mL for 18 hrs to stimulate IL-23, IL-22, IL-17A, IL-17F
(§3) After 18 hrs supernatants were collected and centrifuged to remove any cell debris and aliquots were used for ELISA.

PDE2A = PDE2A (Homo sapiens, UniProt O00408); experiment: Fluorescence polarization assay PDE2A; type: biochemical; settings: substrate cGMP
Method: An experiment to check inhibition of various subtypes of the target Phosphodiesterase (PDE) enzyme in in-vitro assay was performed. […] PDE1A, PDE2A, PDE4A, PDE4B, PDE4C, PDE4D, PDE5A, PDE7A, PDE9A, PDE10A.

Human IL-10 = experiment: IL-10 release from stimulated PBMCs, ELISA; type: cell-based; settings: LPS 100 ng/mL, 18 hrs
Method: as §1, §2, §3

Human IL-17F = experiment: IL-17F release from stimulated PBMCs, ELISA; type: cell-based; settings: PMA+Ionomycin, 18 hrs
Method: as §1, §2, §3

Human IL-1β = experiment: IL-1β release from stimulated PBMCs, ELISA; type: cell-based; settings: LPS 100 ng/mL, 18 hrs
Method: as §1, §2, §3

Human IL-6 = experiment: IL-6 release from stimulated PBMCs, ELISA; type: cell-based; settings: LPS 100 ng/mL, 18 hrs
Method: as §1, §2, §3

IL-6 = IL-6 release from stimulated HaCaT cells, ELISA; type: cell-based, human; settings: IFN-γ 50 ng/mL, 48 hrs
Method: HaCaT cells were maintained in T-75 cm2 flask in Dulbecco's modified Eagle medium supplemented with FBS (10%), L-glutamine (2 mM), penicillin (100 ug/ml), streptomycin (100 ug/ml) at 37° C. in 5% CO2 incubator. Cell growth was maintained to 70-80% confluence for seeding and vehicle used was 1% DMSO. The cell viability was checked at various time points using Alamar blue and fluorescence readings were taken at excitation of 544 nm and emission of 590 nm.
HaCaT cells were stimulated with different stimulators as follows: • a. Cells were exposed to stimulator LPS at 1 μg/mL for 48 hrs to stimulate IL-1β • b. Cells were exposed to stimulator IFN-γ at 50 ng/mL for 48 hrs to stimulate TNF-α, IL-6
After 48 hrs supernatants were collected and centrifuged to remove any cell debris and aliquots were used for ELISA.

PDE2A, sequence (O00408 whole entry, species assumed): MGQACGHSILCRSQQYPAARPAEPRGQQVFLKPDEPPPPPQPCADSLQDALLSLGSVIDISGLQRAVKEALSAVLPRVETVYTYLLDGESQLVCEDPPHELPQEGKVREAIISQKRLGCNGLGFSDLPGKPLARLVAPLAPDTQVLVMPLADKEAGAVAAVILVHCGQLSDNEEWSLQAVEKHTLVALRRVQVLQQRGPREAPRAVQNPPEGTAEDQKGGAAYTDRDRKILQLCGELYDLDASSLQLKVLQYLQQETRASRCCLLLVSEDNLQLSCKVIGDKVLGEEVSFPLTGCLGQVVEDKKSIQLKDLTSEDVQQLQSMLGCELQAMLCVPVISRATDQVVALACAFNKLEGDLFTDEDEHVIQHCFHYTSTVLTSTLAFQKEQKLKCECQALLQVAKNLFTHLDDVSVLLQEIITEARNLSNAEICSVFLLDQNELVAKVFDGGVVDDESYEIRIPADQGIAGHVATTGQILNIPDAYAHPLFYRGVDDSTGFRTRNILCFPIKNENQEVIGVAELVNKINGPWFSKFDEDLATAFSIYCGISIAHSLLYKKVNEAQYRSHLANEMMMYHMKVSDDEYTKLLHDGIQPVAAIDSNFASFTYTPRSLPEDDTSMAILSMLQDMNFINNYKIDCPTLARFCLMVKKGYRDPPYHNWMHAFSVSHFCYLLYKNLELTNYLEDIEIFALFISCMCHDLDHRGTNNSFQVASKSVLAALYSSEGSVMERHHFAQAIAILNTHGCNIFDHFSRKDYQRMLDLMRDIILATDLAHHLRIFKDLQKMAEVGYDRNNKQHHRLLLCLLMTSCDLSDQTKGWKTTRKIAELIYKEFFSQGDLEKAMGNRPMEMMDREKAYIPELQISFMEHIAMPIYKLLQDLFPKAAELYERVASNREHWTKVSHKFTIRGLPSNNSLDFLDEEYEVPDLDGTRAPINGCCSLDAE

In the case of `CC(=O)Oc1ccccc1C(=O)Nc1ncc([N+](=O)[O-])s1` [Nitazoxanide], the “Cell proliferation (% of Control)” value (HaCaT cells; 0.5 μM, 48 h) is reported as 113.4 % of Control, the “Cell proliferation (% of Control)” value (HaCaT cells; 0.5 μM, 72 h) is reported as 106.2 % of Control and the “Cell proliferation (% of Control)” value (HaCaT cells; 1 μM, 24 h) is reported as 123 % of Control. The “Cell proliferation (% of Control)” value (HaCaT cells; 1 μM, 48 h) was 110.8 % of Control, the “Cell proliferation (% of Control)” value (HaCaT cells; 1 μM, 72 h) was 101.7 % of Control and the “Cell proliferation (% of Control)” value (HaCaT cells; 5 μM, 24 h) was 121.6 % of Control. The “Cell proliferation (% of Control)” value (HaCaT cells; 5 μM, 48 h) was 91.8 % of Control, the “Cell proliferation (% of Control)” value (HaCaT cells; 5 μM, 72 h) was 82.9 % of Control and the “Cell proliferation (% of Control)” value (HaCaT cells; 10 μM, 24 h) was 103.8 % of Control. For the same compound, the “Cell proliferation (% of Control)” value (HaCaT cells; 10 μM, 48 h) was 77 % of Control, the “Cell proliferation (% of Control)” value (HaCaT cells; 10 μM, 72 h) was 69.5 % of Control and the “Cell proliferation (% of Control)” value (HaCaT cells; 50 μM, 24 h) was 92.6 % of Control. The “Cell proliferation (% of Control)” value (HaCaT cells; 50 μM, 48 h) was 69.6 % of Control, the “Cell proliferation (% of Control)” value (HaCaT cells; 50 μM, 72 h) was 49.6 % of Control and the “Cell proliferation (% of Control)” value (HaCaT cells; 100 μM, 24 h) was 89.7 % of Control. For the same compound, the “Cell proliferation (% of Control)” value (HaCaT cells; 100 μM, 48 h) was 61 % of Control, the “Cell proliferation (% of Control)” value (HaCaT cells; 100 μM, 72 h) was 33.1 % of Control and the IC50 (HaCaT cells; Homo sapiens, HaCaT, 72 h, read-out: IC50 of cell proliferation) was 39.9 µM. The “Human IL-22 concentration” value (Human IL-22; 1 μM) was 5612 pg/mL, the “Human IL-22 concentration” value (Human IL-22; 10 μM) was 1093 pg/mL and the “Human IL-22 concentration” value (Human IL-22; 25 μM) was 228 pg/mL. For the same compound, the “Human IL-22 concentration” value (Human IL-22; 50 μM) was 0 pg/mL, the IC50 (PDE2A) was 67.5 µM and the “Human IL-10 concentration” value (Human IL-10; 1 μM) was 1799 pg/mL. For the same compound, the “Human IL-10 concentration” value (Human IL-10; 10 μM) was 512 pg/mL, the “Human IL-10 concentration” value (Human IL-10; 25 μM) was 76 pg/mL and the “Human IL-10 concentration” value (Human IL-10; 50 μM) was 42 pg/mL. The “Human IL-17F concentration” value (Human IL-17F; 1 μM) was 166 pg/mL, the “Human IL-17F concentration” value (Human IL-17F; 10 μM) was 0 pg/mL and the “Human IL-17F concentration” value (Human IL-17F; 25 μM) was 0 pg/mL. The “Human IL-17F concentration” value (Human IL-17F; 50 μM) was 0 pg/mL, the “Human IL-1β concentration” value (Human IL-1β; 1 μM) was 4470 pg/mL and the “Human IL-1β concentration” value (Human IL-1β; 10 μM) was 3971 pg/mL. For the same compound, the “Human IL-1β concentration” value (Human IL-1β; 25 μM) was 3203 pg/mL, the “Human IL-1β concentration” value (Human IL-1β; 50 μM) was 2506 pg/mL and the “Human IL-6 concentration” value (Human IL-6; 1 μM) was 5520 pg/mL. For the same compound, the “Human IL-6 concentration” value (Human IL-6; 10 μM) was 5342 pg/mL, the “Human IL-6 concentration” value (Human IL-6; 25 μM) was 3567 pg/mL and the “Human IL-6 concentration” value (Human IL-6; 50 μM) was 2531 pg/mL. For the same compound, the “IL-6 Conc.” value (IL-6; 0.1 μM) was 83 ± 1 pg/mL, the “IL-6 Conc.” value (IL-6; 0.5 μM) was 79 ± 4 pg/mL and the “IL-6 Conc.” value (IL-6; 1 μM) was 70 ± 4 pg/mL.
